According to patent US20240228482A1, “COMPOUNDS, COMPOSITIONS AND METHODS OF TREATING CANCER” (HOTSPOT THERAPEUTICS, INC., priority 2021, published 2024):

These compounds were tested against T1, CBL-B (Homo sapiens, UniProt Q13191) (assay: CBL-B TR-FRET IC50 screening (E1/E2 ubiquitination, Biotin-Ubiquitin, Anti GST-Tb donor / Streptavidin-d2 acceptor)). Conditions: CBL-B 10 nM final; 11-point titration from 100 uM; binned A-F; read-out: CBL-B TR-FRET activity IC50.
T1 construct: GST
Type: biochemical

T1 sequence (Q13191 whole entry): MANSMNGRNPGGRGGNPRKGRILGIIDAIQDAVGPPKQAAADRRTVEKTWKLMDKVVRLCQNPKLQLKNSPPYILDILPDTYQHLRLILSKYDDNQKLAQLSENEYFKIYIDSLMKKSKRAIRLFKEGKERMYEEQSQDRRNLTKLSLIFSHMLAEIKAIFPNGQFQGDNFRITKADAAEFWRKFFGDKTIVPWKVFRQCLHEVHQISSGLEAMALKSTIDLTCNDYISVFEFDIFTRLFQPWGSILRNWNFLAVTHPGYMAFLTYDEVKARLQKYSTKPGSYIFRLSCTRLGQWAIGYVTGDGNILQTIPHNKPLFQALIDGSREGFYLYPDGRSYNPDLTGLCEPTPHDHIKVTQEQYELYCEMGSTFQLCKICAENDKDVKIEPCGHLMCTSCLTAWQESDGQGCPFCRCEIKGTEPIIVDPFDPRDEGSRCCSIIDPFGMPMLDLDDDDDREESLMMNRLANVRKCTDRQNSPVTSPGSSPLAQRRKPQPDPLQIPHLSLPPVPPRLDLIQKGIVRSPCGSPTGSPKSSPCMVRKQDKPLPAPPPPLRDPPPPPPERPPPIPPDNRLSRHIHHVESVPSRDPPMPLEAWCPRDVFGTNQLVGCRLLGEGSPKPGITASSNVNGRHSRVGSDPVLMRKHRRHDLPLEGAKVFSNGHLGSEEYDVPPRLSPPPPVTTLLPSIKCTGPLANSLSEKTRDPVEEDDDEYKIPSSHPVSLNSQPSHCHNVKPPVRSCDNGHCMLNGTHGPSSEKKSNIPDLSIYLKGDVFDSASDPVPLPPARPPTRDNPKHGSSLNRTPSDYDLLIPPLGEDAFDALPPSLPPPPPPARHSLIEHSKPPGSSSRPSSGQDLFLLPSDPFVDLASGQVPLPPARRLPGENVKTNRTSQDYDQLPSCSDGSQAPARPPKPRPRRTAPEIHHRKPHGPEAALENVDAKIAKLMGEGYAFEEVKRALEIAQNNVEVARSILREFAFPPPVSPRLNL

IC50	SMILES
> 10000 nM	Cc1cc(-n2cc3c(C(F)(F)F)cc(CN4CCO[C@H](C)C4)cn3c2=O)cc(C2(Cc3nncn3C)COC2)c1 [Compound 277]
< 100 nM	C[C@H]1CCCN(Cc2cc(C(F)(F)F)c3cn(-c4cccc(C5(Cc6nncn6C)COC5)c4)c(=O)n3c2)C1 [Compound 29]
301 to 1000 nM	C[C@@H]1CN(Cc2cc(C(F)(F)F)c3cn(-c4cccc(C5(c6nncn6C)CC(F)(F)C5)c4)c(=O)n3c2)CCO1 [Compound 279]
< 100 nM	C[C@@H]1CCCCN1Cc1cc(C(F)(F)F)c2cn(-c3cccc([C@H](c4nncn4C)C4CCC4)c3)c(=O)n2c1 [Compound 363_P2]
< 100 nM	CC(c1cc(C(F)(F)F)c2cn(-c3cccc([C@H](c4nncn4C)C4CCC4)c3)c(=O)n2c1)N1CCC[C@H](C)C1 (single isomer, unassigned) [Compound 193]
> 10000 nM	Cn1cnnc1CC1CCc2c1cccc2-n1cc2c(C(F)(F)F)cccn2c1=O (centres unmarked) [Compound 4]
< 100 nM	COc1cc(-n2cc3c(C(F)(F)F)cc(CN4CC5(CC5)C4)cn3c2=O)cc(C2(Cc3nncn3C)COC2)c1 [Compound 110]
> 10000 nM	C[C@H]1CCCN(Cc2cc(C(F)(F)F)c3cn(-c4cccc(N(c5nncs5)C5CCC5)c4)c(=O)n3c2)C1 [Compound 344]
301 to 1000 nM	Cn1cnnc1C(F)(F)[C@@](C)(F)c1cccc(-n2cc3c(C(F)(F)F)cc(CN4CCC(F)(F)C4)cn3c2=O)c1 [Compound 36]
< 100 nM	C[C@H]1CCCN(Cc2cc(C(F)(F)F)c3cn(-c4cc([C@@H](c5nncn5C)C5CCC5)cc(C(F)(F)F)c4)c(=O)n3c2)C1 (single isomer, unassigned) [Compound 223]
< 100 nM	Cn1cnnc1CC1(c2cccc(-n3cc4c(C(F)(F)F)cc(CN5CCC[C@H](F)C5)cn4c3=O)c2)COC1 [Compound 22]
1000 to 3000 nM	COC1CCN(Cc2cc(C(F)(F)F)c3cn(-c4cccc([C@@H](c5nncn5C)C5CCC5)c4)c(=O)n3c2)CC1 (single isomer, unassigned) [Compound 235]
< 100 nM	CO[C@H]1CCCN(Cc2cc(C(F)(F)F)c3cn(-c4cccc([C@H](c5nncn5C)C5CCC5)c4)c(=O)n3c2)CC1 (single isomer, unassigned) [Compound 263]
< 100 nM	Cn1cnnc1CC1(c2cccc(-n3cc4c(Cl)cc(CN5CC[C@H](F)C5)cn4c3=O)c2)COC1 [Compound 66]
100 to 300 nM	CN1CCCCC1c1cc(C(F)(F)F)c2cn(-c3cccc(C4(Cc5nncn5C)COC4)c3)c(=O)n2c1 (single isomer, unassigned) [Compound 187]
< 100 nM	C[C@H]1CCCN(Cc2cc(C(F)(F)F)c3cn(-c4cccc(C5(c6nncn6C)CC6(CCC6)C5)c4)c(=O)n3c2)C1 [Compound 310]
100 to 300 nM	CN1CCC=C(c2cc(C(F)(F)F)c3cn(-c4cccc(C5(Cc6nncn6C)COC5)c4)c(=O)n3c2)C1 [Compound 63]
< 100 nM	Cn1cnnc1CC1(c2cccc(-n3cc4c(C(F)(F)F)cc(CN5CCC[C@@H](O)C5)cn4c3=O)c2)COC1 [Compound 126]
100 to 300 nM	CC(=O)NCc1cc(C(F)(F)F)c2cn(-c3cccc(C4(Cc5nncn5C)COC4)c3)c(=O)n2c1 [Compound 139]
100 to 300 nM	Cn1cnnc1CC1(c2cccc(-n3cc4c(C(F)(F)F)cc(CNCCO)cn4c3=O)c2)COC1 [Compound 75]
< 100 nM	Cn1cnnc1[C@@H](c1cccc(-n2cc3c(C(F)(F)F)cc(CN4CC[C@H](F)C4)cn3c2=O)c1)C1CCC1 (single isomer, unassigned) [Compound 159]
< 100 nM	C=C(C)C[C@H](c1cccc(-n2cc3c(C(F)(F)F)cc(CN4CCC[C@H](C)C4)cn3c2=O)c1)c1nncn1C [Compound 69]
< 100 nM	Cn1cnnc1CC1(c2cccc(-n3cc4c(C(F)(F)F)cc(CNCC5CCCO5)cn4c3=O)c2)COC1 (centres unmarked) [Compound 253]
< 100 nM	Cn1cnnc1[C@@H](c1cccc(-n2cc3c(C(F)(F)F)cc(CN4CCC[C@H](C(F)(F)F)C4)cn3c2=O)c1)C1CCC1 (single isomer, unassigned) [Compound 271]
100 to 300 nM	C[C@H]1CCCN(Cc2cc(C(F)(F)F)c3cn(-c4cccc([C@]5(c6nncn6C)C[C@H](O)C5)c4)c(=O)n3c2)C1 (single isomer, unassigned) [Compound 301]
< 100 nM	CO[C@H]1CCCN(Cc2cc(C(F)(F)F)c3cn(-c4cccc([C@H](c5nncn5C)C5CCC5)c4)c(=O)n3c2)C1 [Compound 250]

Same assay, conditions: second part of Table 2 (head 'Patent Cmpd No / Updated Activity'); same CBL-B TR-FRET IC50 bins A-F; read-out: Updated Activity

IC50	SMILES
< 100 nM	CN1CCN(Cc2cc(C(F)(F)F)c3cn(-c4cccc([C@H](c5nncn5C)C5CCC5)c4)c(=O)n3c2)S1(=O)=O [Compound 608]
< 100 nM	COC(=O)N1CC[C@H](c2cc(C(F)(F)F)c3cn(-c4cccc([C@H](c5nncn5C)C5CCC5)c4)c(=O)n3c2)C1 (single isomer, unassigned) [Compound 408]
> 10000 nM	Cc1cn(CC#N)nc1[C@@H](c1cccc(-n2cc3c(C(F)(F)F)cc(CN4CCC[C@H](C)C4)cn3c2=O)c1)C1CCC1 (single isomer, unassigned) [Compound 419]
< 100 nM	Cn1cnnc1[C@H](c1cc(C#N)cc(-n2cc3c(C(F)(F)F)cc(CN4CC5(CC5)C4)cn3c2=O)c1)C1CCC1 (single isomer, unassigned) [Compound 560]
301 to 1000 nM	Cn1cnnc1[C@H](c1cc(-c2nnnn2C)cc(-n2cc3c(C(F)(F)F)cccn3c2=O)c1)C1CCC1 (single isomer, unassigned) [Compound 531]
> 10000 nM	CC(=O)NCc1cc([C@@H](c2nncn2C)C2CCC2)cc(-n2cc3c(C(F)(F)F)cccn3c2=O)c1 (single isomer, unassigned) [Compound 478]
< 100 nM	Cn1cnnc1[C@@H](c1cccc(-n2cc3c(C(F)(F)F)cc(CN4CCC5(CCOC5=O)CC4)cn3c2=O)c1)C1CCC1 [Compound 545]
< 100 nM	C[C@@H]1CCN1Cc1cc(C(F)(F)F)c2cn(-c3cccc([C@H](c4nncn4C)C4CCC4)c3)c(=O)n2c1 [Compound 547]
< 100 nM	CO[C@H]1C[C@](c2cccc(-n3cc4c(C(F)(F)F)cc([C@H](C)N5CCC(F)CC5)cn4c3=O)c2)(c2nncn2C)C1 (single isomer, unassigned) [Compound 607]
1000 to 3000 nM	Cn1cnnc1[C@H](c1cc(-c2cnoc2)cc(-n2cc3c(C(F)(F)F)cccn3c2=O)c1)C1CCC1 (single isomer, unassigned) [Compound 454]
> 10000 nM	C[C@H]1CCCN(Cc2cc(C(F)(F)F)c3cn(-c4cccc([C@@H](c5nncn5C5CC5)C5CCC5)c4)c(=O)n3c2)C1 (single isomer, unassigned) [Compound 427]
< 100 nM	C[C@H]1C[C@@H](O)CN(Cc2cc(C(F)(F)F)c3cn(-c4cccc([C@H](c5nncn5C)C5CCC5)c4)c(=O)n3c2)C1 (single isomer, unassigned) [Compound 587]
< 100 nM	CO[C@H]1C[C@@](c2cccc(-n3cc4c(C(F)(F)F)cc([C@H](C)N5CCC[C@H](C)C5)cn4c3=O)c2)(c2nncn2C)C1 (single isomer, unassigned) [Compound 601]
> 10000 nM	Cn1cnnc1[C@@H](c1cc(-c2ccsn2)cc(-n2cc3c(C(F)(F)F)cccn3c2=O)c1)C1CCC1 (single isomer, unassigned) [Compound 461]
< 100 nM	C[C@H]1CN(Cc2cc(C(F)(F)F)c3cn(-c4cccc(C5(c6nncn6C)CC6(CC6)C5)c4)c(=O)n3c2)CCC1(F)F (single isomer, unassigned) [Compound 465]
